Patent US11584747B2, “Substituted pyridopyrimidinonyl compounds useful as T cell activators” (BRISTOL-MYERS SQUIBB COMPANY, priority 2019, dated 2023)

How the values were obtained:
whole blood (pERK) = test: pERK Whole Blood; format: cell-based
human DGKζ = human DGKζ (Homo sapiens (Human), UniProt Q13574); test: DGKζ LIPGLO assay (extruded liposome substrate, ADP-Glo luminescence); format: biochemical; settings: liposome (LIPGLO) assay; read-out: DGK zeta (liposome assay) IC50
human DGKα = human DGKα (Homo sapiens (Human), UniProt P23743); test: DGKα ADPGLO assay (detergent/lipid micelle substrate); format: biochemical; settings: ADPGLO assay; read-out: DGK alpha ADPGLO IC50
Description: DGK Alpha ADPGLO (Truncated) IC50 (uM)
The detergent/lipid micelle was prepared by combining 15 g phosphatidylserine (Avanti 840035P) and 1 g diacylglycerol (8008110) and dissolving into 150 mL chloroform in a 2 L round bottom flask. Chloroform was removed under high vacuum by rotary evaporation. […] The lipid/detergent solution was split into 5 mL aliquots and stored at −80° C.

Sequence of human DGKζ (Q13574 other isoform, or with tags, fused parts or gaps): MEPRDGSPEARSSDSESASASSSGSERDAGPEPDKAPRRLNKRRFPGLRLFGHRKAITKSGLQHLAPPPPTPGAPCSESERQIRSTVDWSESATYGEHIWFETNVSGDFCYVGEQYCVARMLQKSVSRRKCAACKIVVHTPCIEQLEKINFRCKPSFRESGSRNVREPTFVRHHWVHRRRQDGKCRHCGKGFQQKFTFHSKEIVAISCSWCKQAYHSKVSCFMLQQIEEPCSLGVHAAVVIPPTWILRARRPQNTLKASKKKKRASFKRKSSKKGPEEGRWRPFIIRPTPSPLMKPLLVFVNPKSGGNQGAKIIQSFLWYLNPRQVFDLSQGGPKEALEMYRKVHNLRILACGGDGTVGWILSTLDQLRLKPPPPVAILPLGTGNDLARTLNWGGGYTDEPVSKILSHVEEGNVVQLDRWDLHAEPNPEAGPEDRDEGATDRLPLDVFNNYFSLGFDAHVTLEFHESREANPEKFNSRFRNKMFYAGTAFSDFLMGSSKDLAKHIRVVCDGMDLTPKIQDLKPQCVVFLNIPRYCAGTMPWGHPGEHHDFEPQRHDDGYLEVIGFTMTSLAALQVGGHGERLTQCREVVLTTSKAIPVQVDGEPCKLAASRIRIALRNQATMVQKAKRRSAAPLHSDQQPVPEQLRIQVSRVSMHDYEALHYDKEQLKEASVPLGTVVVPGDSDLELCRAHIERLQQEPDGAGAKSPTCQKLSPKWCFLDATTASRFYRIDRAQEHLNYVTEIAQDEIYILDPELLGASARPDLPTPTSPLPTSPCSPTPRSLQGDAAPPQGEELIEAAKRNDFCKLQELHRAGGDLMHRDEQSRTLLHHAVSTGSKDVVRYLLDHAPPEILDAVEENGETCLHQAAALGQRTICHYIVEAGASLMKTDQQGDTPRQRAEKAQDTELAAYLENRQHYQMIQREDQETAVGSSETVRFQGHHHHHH
Sequence of human DGKα (P23743 whole entry, looked up, the tested form may be a part): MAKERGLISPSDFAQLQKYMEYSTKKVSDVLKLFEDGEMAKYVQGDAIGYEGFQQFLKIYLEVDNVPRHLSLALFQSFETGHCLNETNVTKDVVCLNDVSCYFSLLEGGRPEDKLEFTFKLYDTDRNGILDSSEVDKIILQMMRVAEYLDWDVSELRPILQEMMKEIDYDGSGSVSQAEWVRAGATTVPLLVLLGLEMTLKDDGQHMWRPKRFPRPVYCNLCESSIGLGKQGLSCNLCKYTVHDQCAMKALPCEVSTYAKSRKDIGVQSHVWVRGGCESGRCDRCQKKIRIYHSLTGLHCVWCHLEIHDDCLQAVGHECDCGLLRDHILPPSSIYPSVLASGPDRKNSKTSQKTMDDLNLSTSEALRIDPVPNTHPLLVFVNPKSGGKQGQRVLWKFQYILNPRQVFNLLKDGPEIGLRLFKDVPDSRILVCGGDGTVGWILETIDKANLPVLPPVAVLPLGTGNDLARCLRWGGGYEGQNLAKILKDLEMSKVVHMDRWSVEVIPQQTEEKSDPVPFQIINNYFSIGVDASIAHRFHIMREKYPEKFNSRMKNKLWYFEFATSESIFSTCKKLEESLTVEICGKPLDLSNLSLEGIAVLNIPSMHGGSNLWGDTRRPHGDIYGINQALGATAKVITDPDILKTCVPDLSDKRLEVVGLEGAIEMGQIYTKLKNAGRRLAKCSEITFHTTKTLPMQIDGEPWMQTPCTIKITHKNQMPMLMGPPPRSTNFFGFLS

| SMILES | EC50 (whole blood (pERK)) | IC50 (human DGKζ) | IC50 (human DGKα) |
| --- | --- | --- | --- |
| CCC(c1ccc(OCc2nccs2)cc1)N1C[C@H](C)N(c2nc(=O)n(C)c3ccc(C#N)nc23)C[C@H]1CC (stereo partly drawn) [Example 348, 4-((2S,5R)-5-ethyl-2-methyl-4-(1-(4-(thiazol-2-ylmethoxy)phenyl)propyl)piperazin-1-yl)-1-methyl-2-oxo-1,2-dihydropyrido[3,2-d]pyrimidine-6-carbonitrile] | 1.95 µM | 0.045 µM | 0.061 µM |
| CC(c1ccc(CN2CC3(COC3)C2)cc1)N1C[C@H](C)N(c2nc(=O)n(C)c3ccc(C#N)nc23)C[C@H]1C (stereo partly drawn) [Example 393, 4-((2S,5R)-4-(1-(4-((2-oxa-6-azaspiro[3.3]heptan-6-yl)methyl)phenyl)ethyl)-2,5-dimethylpiperazin-1-yl)-1-methyl-2-oxo-1,2-dihydropyrido[3,2-d]pyrimidine-6-carbonitrile] | 3.45 µM | 125 µM | 23.5 µM |
| CC[C@@H]1CN(c2nc(=O)n(C)c3ccc(C#N)nc23)[C@@H](C)CN1C(C)c1ccc(C(F)(F)F)c(C#N)c1 (single isomer, unassigned) [Example 357] | 3.78 µM | 1.56 µM | 2.08 µM |
| CCC(c1ccc(C(F)(F)F)cc1)N1C[C@H](CC)N(c2nc(=O)[nH]c3ccc(C#N)nc23)C[C@H]1CC (stereo partly drawn) [Example 415, 4-((2S,5R)-2,5-diethyl-4-(1-(4-(trifluoromethyl)phenyl)propyl)piperazin-1-yl)-2-oxo-1,2-dihydropyrido[3,2-d]pyrimidine-6-carbonitrile] | 3.44 µM | 61.9 µM | 3.31 µM |
| CC[C@@H]1CN(c2nc(=O)n(C)c3ccc(C#N)nc23)[C@@H](C)CN1C(C)c1ccc(C2CCOCC2)cc1 (stereo partly drawn) [Example 330, 4-((2 S,5R)-5-ethyl-2-methyl-4-(1-(4-(tetrahydro-2H-pyran-4-yl)phenyl)ethyl)piperazin-1-yl)-1-methyl-2-oxo-1,2-dihydropyrido[3,2-d]pyrimidine-6-carbonitrile] | 11 µM | 2.83 µM | 0.64 µM |
| CCC(c1ccc(C(F)(F)F)cc1)N1C[C@H](CC)N(c2nc(=O)[nH]c3ccc(C#N)nc23)C[C@H]1CC (stereo partly drawn) [Example 416, 4-((2S,5R)-2,5-diethyl-4-(1-(4-(trifluoromethyl)phenyl)propyl)piperazin-1-yl)-2-oxo-1,2-dihydropyrido[3,2-d]pyrimidine-6-carbonitrile] | 3.14 µM | 0.74 µM | 0.14 µM |
| CC[C@@H]1CN(c2nc(=O)n(C)c3ccc(C#N)nc23)[C@@H](C)CN1C(c1nc(C2CC2)no1)C(C)C (stereo partly drawn) [Example 365, 4-((2S,5R)-4-(1-(3-cyclopropyl-1,2,4-oxadiazol-5-yl)-2-methylpropyl)-5-ethyl-2-methylpiperazin-1-yl)-1-methyl-2-oxo-1,2-dihydropyrido[3,2-d]pyrimidine-6-carbonitrile] | 4.41 µM | 0.021 µM | 0.016 µM |
| CCC(N1C[C@H](C)N(c2nc(=O)n(C)c3ccc(C#N)nc23)C[C@H]1C)C12CC(C(F)(F)F)(C1)C2 (single isomer, unassigned) [Example 449] | 20 µM | 4.08 µM | 7.41 µM |
| CC[C@H]1CN(C(C)c2ccc(C(F)(F)F)cc2)[C@H](CC)CN1c1nc(=O)n(C)c2ccc(C(F)F)nc12 (stereo partly drawn) [Example 440, 4-((2S,5R)-2,5-Diethyl-4-(1-(4-(trifluoromethyl)phenyl)ethyl)piperazin-1-yl)-6-(difluoromethyl)-1-methylpyrido[3,2-d]pyrimidin-2(1H)-one] | 8.07 µM | 44.6 µM | 1.14 µM |
| CCC(c1ccc(OCCC2CC2)cc1)N1C[C@H](C)N(c2nc(=O)n(C)c3ccc(C#N)nc23)C[C@H]1CC (stereo partly drawn) [Example 340, 4-((2S,5R)-4-(1-(4-(2-cyclopropylethoxy)phenyl)propyl)-5-ethyl-2-methylpiperazin-1-yl)-1-methyl-2-oxo-1,2-dihydropyrido[3,2-d]pyrimidine-6-carbonitrile] | 12.9 µM | 15.9 µM | 6.31 µM |
| CC[C@@H]1CN(c2nc(=O)[nH]c3ccc(C#N)nc23)[C@@H](C)CN1C(C)c1ccc(C(F)(F)F)cc1 (single isomer, unassigned) [Example 414] | 0.16 µM | 11.3 µM | 1.49 µM |
| CCC1CN(c2nc(=O)n(C)c3ccc(C#N)nc23)[C@@H](C)CN1C(C)c1ccc(C(F)(F)F)c(CN2CCOCC2)c1 (single isomer, unassigned) [Example 351] | 0.38 µM | 1.04 µM | 0.18 µM |
| CC[C@@H]1CN(c2nc(=O)n(C)c3ccc(C#N)nc23)[C@@H](C)CN1C(c1ccc(OC(C)C)cc1)C(C)C (stereo partly drawn) [Example 323, 4-((2S,5R)-5-ethyl-4-(1-(4-isopropoxyphenyl)-2-methylpropyl)-2-methylpiperazin-1-yl)-1-methyl-2-oxo-1,2-dihydropyrido[3,2-d]pyrimidine-6-carbonitrile] | 0.67 µM | 0.021 µM | 0.52 µM |
| CCC(c1ccc(OCC2(C)CC2)cc1)N1C[C@H](C)N(c2nc(=O)n(C)c3ccc(C#N)nc23)C[C@H]1CC (stereo partly drawn) [Example 346, 4-((2S,5R)-5-ethyl-2-methyl-4-(1-(4-((1-methylcyclopropyl)methoxy)phenyl)propyl)piperazin-1-yl)-1-methyl-2-oxo-1,2-dihydropyrido[3,2-d]pyrimidine-6-carbonitrile] | 0.19 µM | 1.24 µM | 1.28 µM |
| CCC(c1ccc(OCC2CCOCC2)cc1)N1C[C@H](C)N(c2nc(=O)n(C)c3ccc(C#N)nc23)C[C@H]1CC (stereo partly drawn) [Example 337, 4-((2S,5R)-5-ethyl-2-methyl-4-(1-(4-((tetrahydro-2H-pyran-4-yl)methoxy)phenyl)propyl)piperazin-1-yl)-1-methyl-2-oxo-1,2-dihydropyrido[3,2-d]pyrimidine-6-carbonitrile] | 0.054 µM | 0.1 µM | 0.081 µM |
| CCC(c1ccc(F)c(F)c1)N1C[C@H](C)N(c2nc(=O)n(C)c3ccc(C#N)nc23)C[C@H]1CC (stereo partly drawn) [Example 320, 4-((2S,5R)-4-(1-(3,4-difluorophenyl)propyl)-5-ethyl-2-methylpiperazin-1-yl)-1-methyl-2-oxo-1,2-dihydropyrido[3,2-d]pyrimidine-6-carbonitrile] | 0.93 µM | 0.62 µM | 0.42 µM |
| CCC(c1c(F)cc(OCC2CC2)cc1F)N1C[C@H](C)N(c2nc(=O)n(C)c3ccc(C#N)nc23)C[C@H]1CC (stereo partly drawn) [Example 328, 4-((2S,5R)-4-(1-(4-(cyclopropylmethoxy)-2,6-difluorophenyl)propyl)-5-ethyl-2-methylpiperazin-1-yl)-1-methyl-2-oxo-1,2-dihydropyrido[3,2-d]pyrimidine-6-carbonitrile] | 20 µM | 2.23 µM | 2.97 µM |
| CCC(c1ccc(C2OCCO2)cc1)N1C[C@H](C)N(c2nc(=O)n(C)c3ccc(C#N)nc23)C[C@H]1CC (stereo partly drawn) [Example 331, 4-((2S,5R)-4-(1-(4-(1,3-dioxolan-2-yl)phenyl)propyl)-5-ethyl-2-methylpiperazin-1-yl)-1-methyl-2-oxo-1,2-dihydropyrido[3,2-d]pyrimidine-6-carbonitrile] | 0.94 µM | 0.033 µM | 0.038 µM |
| CCC(c1ccc(OCc2nccs2)cc1)N1C[C@H](C)N(c2nc(=O)n(C)c3ccc(C#N)nc23)C[C@H]1CC (stereo partly drawn) [Example 347, 4-((2S,5R)-5-ethyl-2-methyl-4-(1-(4-(thiazol-2-ylmethoxy)phenyl)propyl)piperazin-1-yl)-1-methyl-2-oxo-1,2-dihydropyrido[3,2-d]pyrimidine-6-carbonitrile] | 1.99 µM | 0.95 µM | 0.32 µM |
| CCC(c1ccc(C(C)(C)C#N)cc1)N1C[C@H](C)N(c2nc(=O)n(C)c3ccc(C#N)nc23)C[C@H]1CC (stereo partly drawn) [Example 317, 4-((2S,5R)-4-(1-(4-(2-cyanopropan-2-yl)phenyl)propyl)-5-ethyl-2-methylpiperazin-1-yl)-1-methyl-2-oxo-1,2-dihydropyrido[3,2-d]pyrimidine-6-carbonitrile] | 0.18 µM | 0.026 µM | 0.017 µM |
| [2H]C([2H])([2H])n1c(=O)nc(N2C[C@@H](CC)N(C(C)c3ccc(C(F)(F)F)cc3)C[C@@H]2C)c2nc(Cl)ccc21 (single isomer, unassigned) [Example 417] | 20 µM | 0.52 µM | 0.17 µM |
| CCC(c1nc(C2CC2)no1)N1C[C@H](CC)N(c2nc(=O)n(C)c3ccc(C#N)nc23)C[C@H]1CC (stereo partly drawn) [Example 364, 4-((2S,5R)-4-(1-(3-cyclopropyl-1,2,4-oxadiazol-5-yl)propyl)-2,5-diethylpiperazin-1-yl)-1-methyl-2-oxo-1,2-dihydropyrido[3,2-d]pyrimidine-6-carbonitrile] | 1.8 µM | 0.33 µM | 0.053 µM |
| CC[C@@H]1CN(c2nc(=O)n(C)c3ccc(C#N)nc23)[C@@H](C)CN1C(c1ccc(F)cc1)c1cccc(C(F)F)n1 (stereo partly drawn) [Example 315, 4-((2 S,5R)-4-((6-(difluoromethyl)pyridin-2-yl)(4-fluorophenyl)methyl)-5-ethyl-2-methylpiperazin-1-yl)-1-methyl-2-oxo-1,2-dihydropyrido[3,2-d]pyrimidine-6-carbonitrile] | 0.27 µM | 0.19 µM | 0.026 µM |
| CC(c1ccc(CN2CC3(COC3)C2)cc1)N1C[C@H](C)N(c2nc(=O)n(C)c3ccc(C#N)nc23)C[C@H]1C (stereo partly drawn) [Example 392, 4-((2S,5R)-4-(1-(4-((2-oxa-6-azaspiro[3.3]heptan-6-yl)methyl)phenyl)ethyl)-2,5-dimethylpiperazin-1-yl)-1-methyl-2-oxo-1,2-dihydropyrido[3,2-d]pyrimidine-6-carbonitrile] | 6.89 µM | 33.6 µM | 2.84 µM |
